Measured values taken from US5482964A, “Substituted phenoxyhydroxypropyl amines as central nervous system agents” (Warner-Lambert Company, priority 1994, dated 1996).
pIC50, pKi: −log10 of the molar value.

What was measured:
P-type calcium channels = molecular target: T1, P-type calcium channels (Rattus norvegicus, UniProt P54282); assay: Inhibition of depolarization induced Ca++ flux (CaFl), 45Ca++ influx into rat neocortical synaptosomes; format: biochemical; conditions: for pIC50: 30 mM KCl stimulated 45Ca flux, rat neocortical synaptosomes; for inhibition at 10 µM / inhibition at 30 µM: read-out: CaFl, percent inhibition
T1 construct: Male rats (Sprague-Dawley, 200-220 g) were killed by decapitation and neocortices were isolated by blunt dissection; from tissue; host or cells: Sprague-Dawley rat neocortex, crude synaptosomes
Text: A large influx of calcium from extracellular compartments into neurons is observed after opening of voltage-dependent calcium channels. The opening of calcium channels may be induced by a K^+ -stimulated depolarization of neuronal membranes. A crude synaptosomal preparation contains small vesicles surrounded by neuronal membranes, and it is feasible to study the opening of voltage-operated calcium channels in such a preparation. In the test described below, the influx of ^45 Ca^++ into rat synaptosomes is studied under depolarized conditions. The effect of the test compounds on the depolarization induced calcium update can thus be studied. The calcium influx measured in this assay is believed to represent the P-type calcium channels.
Male rats (Sprague-Dawley, 200-220 g) were killed by decapitation and neocortices were isolated by blunt dissection. White matter was dissected away and the gray matter was placed in cold sucrose buffer (composition (mM): sucrose 320, TRIS base 5.0, EDTA 0.1; adjusted to pH 7.3 with HCl). The tissue was homogenized using 5 strokes at 500 rpm followed by 4 strokes at 800 rpm. The homogenate was centrifuged at 1075 g for 10 minutes. The pellet was discarded and the supernatant was centrifuged at 15800 g for 10 minutes at 4° C., and the supernatant was discarded. The final pellet was resuspended in incubation buffer and kept on ice.
Fifty-microliter aliquots of neocortical synaptosome suspension were preincubated for 5 minutes at 25° C. in 400 μL of incubation buffer containing drug or control solvent. The synaptosomes were then exposed to a tracer quantity of ^45 CaCl2 (1 μCi/mL) in combination with either 3 mM KCl (basal calcium flux or 30 mM KCl (stimulated calcium flux). The calcium flux was terminated by filtration over glass-fiber filters (GFB) using a Skatron 12-well harvester; filters were washed with a pressurized, continuous flow of 3 mL wash buffer (composition (mM): choline chloride 140, EGTA 3, HEPES 22; adjusted to pH 7.3 with TRIS base). Radioactivity of the filters was measured by scintillation counting. Basal calcium flux was subtracted from stimulated calcium flux in both control- and drug-treated conditions, and data were expressed as percent inhibition of the adjusted control response.

sodium channels = conditions: rat neocortical membranes, 5 nM [3H]batrachotoxinin, Cheng-Prusoff; read-out: BTX Binding
male CF-1 mice = assay: Maximal electroshock (MES) anticonvulsant screen in mice; format: in vivo
Protocol: All experiments were conducted on male CF-1 mice (Charles River Laboratory, Portage, Mich.). The mice weighed 20 to 35 g and were allowed free access to food and water prior to testing. The compounds were dissolved in various solutions of up to 50% organic solvents and 50% buffered solutions. All doses were injected intravenously (IV) in a volume of 1.0 mL per 100 g of body weight using a 25-gauge needle and a 1 cc syringe. Doses of the compounds were calculated as the free base.
Maximal electroshock was administered via corneal electrodes with an electroshock apparatus (Wahlquist Instrument Company) immediately following the inverted screen test. The stimulus consisted of a 50 mA current (100 mA peak-to-peak) and duration of 0.2 seconds. The protocol for the MES assay involved groups of five mice per dose at each time period postdose. […] The mice were sacrificed with carbon dioxide immediately after MES. Anticonvulsant data were recorded as the number of mice protected from MES out of five. Two out of five were considered active.

T1 sequence (P54282 whole entry): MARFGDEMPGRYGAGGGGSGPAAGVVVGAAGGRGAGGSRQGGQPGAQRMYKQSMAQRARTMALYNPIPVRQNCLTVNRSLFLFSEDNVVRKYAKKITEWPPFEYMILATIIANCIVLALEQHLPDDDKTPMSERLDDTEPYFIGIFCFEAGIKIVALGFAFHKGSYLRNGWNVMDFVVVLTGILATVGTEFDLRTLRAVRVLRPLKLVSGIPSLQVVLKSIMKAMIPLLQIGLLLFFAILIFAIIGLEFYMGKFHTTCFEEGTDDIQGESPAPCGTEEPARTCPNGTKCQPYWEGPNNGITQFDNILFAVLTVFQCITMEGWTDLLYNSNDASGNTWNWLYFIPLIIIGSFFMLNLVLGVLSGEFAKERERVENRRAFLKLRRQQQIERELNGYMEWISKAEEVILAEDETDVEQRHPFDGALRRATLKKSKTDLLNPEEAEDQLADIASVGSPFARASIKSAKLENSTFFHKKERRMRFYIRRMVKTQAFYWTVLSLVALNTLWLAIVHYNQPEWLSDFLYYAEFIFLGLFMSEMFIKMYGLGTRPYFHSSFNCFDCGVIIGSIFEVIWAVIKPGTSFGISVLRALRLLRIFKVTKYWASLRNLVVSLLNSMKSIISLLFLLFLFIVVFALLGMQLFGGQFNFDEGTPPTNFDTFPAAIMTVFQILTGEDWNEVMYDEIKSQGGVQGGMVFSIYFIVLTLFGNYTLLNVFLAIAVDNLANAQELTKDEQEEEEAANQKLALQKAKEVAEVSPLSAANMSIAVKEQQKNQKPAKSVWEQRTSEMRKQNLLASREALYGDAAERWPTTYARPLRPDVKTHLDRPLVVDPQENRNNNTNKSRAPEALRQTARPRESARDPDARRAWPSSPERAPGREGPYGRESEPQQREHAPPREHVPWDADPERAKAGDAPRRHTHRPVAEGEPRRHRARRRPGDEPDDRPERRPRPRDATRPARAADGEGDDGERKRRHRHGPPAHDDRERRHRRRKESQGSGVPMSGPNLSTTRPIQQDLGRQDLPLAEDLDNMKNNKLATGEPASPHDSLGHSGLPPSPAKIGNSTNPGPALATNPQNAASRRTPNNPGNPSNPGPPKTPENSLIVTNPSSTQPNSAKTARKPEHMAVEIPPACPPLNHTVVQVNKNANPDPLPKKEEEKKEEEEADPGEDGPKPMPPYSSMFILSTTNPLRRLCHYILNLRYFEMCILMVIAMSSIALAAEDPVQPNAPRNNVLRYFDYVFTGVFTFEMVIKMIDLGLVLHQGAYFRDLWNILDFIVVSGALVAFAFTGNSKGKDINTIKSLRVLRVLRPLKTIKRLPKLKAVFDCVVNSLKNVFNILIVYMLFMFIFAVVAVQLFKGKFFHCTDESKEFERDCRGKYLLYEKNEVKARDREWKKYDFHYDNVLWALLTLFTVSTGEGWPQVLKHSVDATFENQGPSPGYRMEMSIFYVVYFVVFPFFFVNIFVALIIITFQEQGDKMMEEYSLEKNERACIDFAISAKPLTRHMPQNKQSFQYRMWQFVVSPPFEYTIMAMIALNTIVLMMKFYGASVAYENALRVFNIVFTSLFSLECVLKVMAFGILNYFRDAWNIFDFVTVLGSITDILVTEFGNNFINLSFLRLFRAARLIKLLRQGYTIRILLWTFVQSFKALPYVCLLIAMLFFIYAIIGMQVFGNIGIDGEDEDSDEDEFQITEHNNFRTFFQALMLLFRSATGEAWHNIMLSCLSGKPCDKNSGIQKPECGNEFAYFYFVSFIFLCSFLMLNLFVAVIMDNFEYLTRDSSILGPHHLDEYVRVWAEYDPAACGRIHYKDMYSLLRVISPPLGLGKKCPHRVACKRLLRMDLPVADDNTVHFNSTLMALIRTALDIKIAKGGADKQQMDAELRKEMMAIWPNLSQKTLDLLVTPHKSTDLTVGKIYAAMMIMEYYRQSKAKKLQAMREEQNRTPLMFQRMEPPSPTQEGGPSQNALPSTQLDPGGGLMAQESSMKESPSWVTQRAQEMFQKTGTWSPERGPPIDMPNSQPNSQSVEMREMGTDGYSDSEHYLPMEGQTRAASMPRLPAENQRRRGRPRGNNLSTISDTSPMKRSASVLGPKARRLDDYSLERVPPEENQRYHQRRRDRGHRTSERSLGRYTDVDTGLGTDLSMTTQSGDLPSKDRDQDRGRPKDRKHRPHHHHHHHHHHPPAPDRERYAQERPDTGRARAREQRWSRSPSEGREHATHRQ

Molecule COc1ccc(CCN(Cc2ccc(F)cc2)CC(O)COc2cccc(C)c2)cc1OC (stereo not shown) [Example 1, 1-[[2-(3,4-Dimethoxyphenyl)-ethyl]-(4-fluorobenzyl)amino]-3-m-tolyloxy-propan-2-ol] has a pIC50 (P-type calcium channels) of 5.28.
In the case of COc1ccc(CCN(Cc2ccccc2)CC(O)COc2cccc(C)c2)cc1OC (stereo not shown) [Example 2, 1-{Benzyl-[2-(3,4-dimethoxyphenyl)-ethyl]amino}-3-m-tolyloxy-propan-2-ol], the pIC50 (P-type calcium channels) was 5.04 and the pKi (sodium channels) was 6.28.
COc1ccc(CCN(Cc2ccc(Cl)cc2)CC(O)COc2cccc(C)c2)cc1OC (stereo not shown) [Example 3, 1-{(4-Chlorobenzyl)-[2-(3,4-dimethoxyphenyl)-ethyl]-amino}-3-m-tolyloxy-propan-2-ol] was tested, and the inhibition at 10 µM (P-type calcium channels) was 44% and the inhibition at 30 µM (P-type calcium channels) was 77%.
For COc1ccc(CCN(Cc2cccc(F)c2)CC(O)COc2cccc(C)c2)cc1OC (stereo not shown) [Example 4, 1-[[2-(3,4-Dimethoxyphenyl)-ethyl]-(3-fluorobenzyl)amino]-3-m-tolyloxy-propan-2-ol], the pIC50 (P-type calcium channels) was 5.18.
COc1ccc(CCN(Cc2ccc([N+](=O)[O-])cc2)CC(O)COc2cccc(C)c2)cc1OC (stereo not shown) [Example 5, 1-[[2-(3,4-Dimethoxyphenyl)-ethyl]-(4-nitrobenzyl)amino]-3-m-tolyloxy-propan-2-ol] was tested, and the inhibition at 10 µM (P-type calcium channels) was 59% and the inhibition at 30 µM (P-type calcium channels) was 62%.
COc1ccc(CCN(Cc2cccc([N+](=O)[O-])c2)CC(O)COc2cccc(C)c2)cc1OC (stereo not shown) [Example 6, 1-[[2-(3,4-Dimethoxyphenyl)-ethyl]-(3-nitrobenzyl)amino]-3-m-tolyloxy-propan-2-ol] showed an inhibition at 10 µM (P-type calcium channels) of 57% and an inhibition at 30 µM (P-type calcium channels) of 62%.
For COc1ccc(CCN(Cc2cccc(Cl)c2)CC(O)COc2cccc(C)c2)cc1OC (stereo not shown) [Example 7, 1-{(3-Chlorobenzyl)-[2-(3,4-dimethoxyphenyl)ethyl]-amino}-3-m-tolyloxy-propan-2-ol], the inhibition at 10 µM (P-type calcium channels) was 47%.
Work on COc1ccc(CN(CCc2ccc(OC)c(OC)c2)CC(O)COc2cccc(C)c2)cc1 (stereo not shown) [Example 8, 1-[[2-(3,4-Dimethoxyphenyl)-ethyl]-(4-methoxybenzyl)amino]-3-m-tolyloxy-propan-2-ol] yielded a pIC50 (P-type calcium channels) of 5.27 and a pKi (sodium channels) of 6.82.
For COc1ccc(CCN(Cc2cccc3ccccc23)CC(O)COc2cccc(C)c2)cc1OC (stereo not shown) [Example 9, 1-{[2-(3,4-Dimethoxyphenyl)-ethyl]-naphthalen-1-ylmethylamino}-3-m-tolyloxy-propan-2-ol], the pIC50 (P-type calcium channels) was 5.00.
For COc1cccc(CN(CCc2ccc(OC)c(OC)c2)CC(O)COc2cccc(C)c2)c1 (stereo not shown) [Example 10, 1-[[2-(3,4-Dimethoxyphenyl)-ethyl]-(3-methoxybenzyl)amino]-3-m-tolyloxy-propan-2-ol], the pIC50 (P-type calcium channels) was 5.29.
COc1ccc(CCN(Cc2ccccc2[N+](=O)[O-])CC(O)COc2cccc(C)c2)cc1OC (stereo not shown) [Example 11, 1-[[2-(3,4-Dimethoxyphenyl)-ethyl]-(2-nitrobenzyl)amino]-3-m-tolyloxy-propan-2-ol] gave a pIC50 (P-type calcium channels) of 5.51.
COc1ccccc1CN(CCc1ccc(OC)c(OC)c1)CC(O)COc1cccc(C)c1 (stereo not shown) [Example 12, 1-[[2-(3,4-Dimethoxyphenyl)-ethyl]-(2-methoxybenzyl)amino]-3-m-tolyloxy-propan-2-ol] was tested, and the pIC50 (P-type calcium channels) was 5.39.
In the case of COc1ccc(CCN(Cc2ccccc2F)CC(O)COc2cccc(C)c2)cc1OC (stereo not shown) [Example 13, 1-[[2-(3,4-Dimethoxyphenyl)-ethyl]-(2-fluorobenzyl)amino]-3-m-tolyloxy-propan-2-ol], the pIC50 (P-type calcium channels) was 5.74.
Work on COc1ccc(CCN(Cc2ccccc2)CC(O)COc2ccc(OCc3ccccc3)cc2)cc1OC (stereo not shown) [Example 14, 1-{Benzyl-[2-(3,4-dimethoxyphenyl)-ethyl]-amino}-3-(4-benzyloxyphenoxy)-propan-2-ol] yielded a pIC50 (P-type calcium channels) of 5.30 and a pKi (sodium channels) of 7.80.
For COc1ccc(CCN(Cc2ccccc2)CC(O)COc2ccc(C3CCCCC3)cc2C)cc1OC (stereo not shown) [Example 15, 1-{Benzyl-[2-(3,4-dimethoxyphenyl)-ethyl]-amino}-3-(4-cyclohexyl-2-methylphenoxy)-propan-2-ol], the pIC50 (P-type calcium channels) was 5.04.
Work on COc1ccc(CCN(Cc2ccccc2)CC(O)COc2ccc3c(c2)CCC3)cc1OC (stereo not shown) [Example 16, 1-{Benzyl-[2-(3,4-dimethoxyphenyl)-ethyl]-amino}-3-(indan-5-yloxy)-propan-2-ol] yielded a pIC50 (P-type calcium channels) of 5.32.
In the case of COc1ccc(CCN(Cc2ccccc2Cl)CC(O)COc2cccc(C)c2)cc1OC (stereo not shown) [Example 17, 1-{(2-Chlorobenzyl)-[2-(3,4-dimethoxyphenyl)ethyl]-amino}-3-m-tolyloxy-propan-2-ol], the inhibition at 10 µM (P-type calcium channels) was 46% and the inhibition at 30 µM (P-type calcium channels) was 55%.
For COc1ccc(CCN(Cc2ccccc2)CC(O)COc2cccc3ccccc23)cc1OC (stereo not shown) [Example 18, 1-{Benzyl-[2-(3,4-dimethoxyphenyl)-ethyl]-amino}-3-(naphthalen-1-yloxy)-propan-2-ol], the pIC50 (P-type calcium channels) was 5.09.
Molecule COc1ccc(CCN(Cc2ccccc2)CC(O)CSc2cccc3ccccc23)cc1OC (stereo not shown) [Example 19, 1-{Benzyl-[2-(3,4-dimethoxyphenyl)-ethyl]-amino}-3-(naphthalen-1-ylsulfanyl)-propan-2-ol] has a pIC50 (P-type calcium channels) of 5.60 and a pKi (sodium channels) of 6.70.
COc1ccc(CCN(Cc2ccccc2)CC(O)COc2cccc(C(F)(F)F)c2)cc1OC (stereo not shown) [Example 20, 1-{Benzyl-[2-(3,4-dimethoxyphenyl)-ethyl]-amino}-3-(3-trifluoromethylphenoxy)-propan-2-ol] showed a pIC50 (P-type calcium channels) of 5.33 and a pKi (sodium channels) of 6.21.
With COc1ccc(CCN(Cc2ccccc2)CC(O)CSc2cccc(C(F)(F)F)c2)cc1OC (stereo not shown) [Example 21, 1-{Benzyl-[2-(3,4-dimethoxyphenyl)-ethyl]-amino}-3-(3-trifluoromethylphenylsulfanyl)-propan-2-ol] the pIC50 (P-type calcium channels) was 5.37 and the pKi (sodium channels) was 6.36.
COc1ccc(CCN(CCc2ccccc2)CC(O)COc2cccc(C)c2)cc1OC (stereo not shown) [Example 22, 1-{[2-(3,4-Dimethoxyphenyl)ethyl]-phenethylamino}-3-m-tolyloxy-propan-2-ol] gave a pIC50 (P-type calcium channels) of 5.85.
Work on COc1ccc(CCN(CC(O)COc2cccc(C)c2)CC2CCCCC2)cc1OC (stereo not shown) [Example 23, 1-{Cyclohexylmethyl-[2-(3,4-dimethoxyphenyl)ethyl]-amino}-3-m-tolyloxy-propan-2-ol] yielded a pIC50 (P-type calcium channels) of 5.72.
With COc1ccc(CCN(C)CC(O)COc2ccc(C3CCCCC3)cc2C)cc1OC (stereo not shown) [Example 24, 1-(4-Cyclohexyl-2-methylphenoxy)-3-{[2-(3,4-dimethoxyphenyl)-ethyl]-methylamino}-propan-2-ol] the pIC50 (P-type calcium channels) was 5.68, the pKi (sodium channels) was 6.51 and the “MES, number of mice protected” value (male CF-1 mice; 1 mg/kg IV, 3 min postdose) was 0/5. For the same molecule, the “MES, number of mice protected” value (male CF-1 mice; 1 mg/kg IV, 30 min postdose) was 0/5, the “MES, number of mice protected” value (male CF-1 mice; 3 mg/kg IV, 3 min postdose) was 0/5 and the “MES, number of mice protected” value (male CF-1 mice; 3 mg/kg IV, 30 min postdose) was 1/5. The “MES, number of mice protected” value (male CF-1 mice; 3 mg/kg IV, 1 hr postdose) was 1/5, the “MES, number of mice protected” value (male CF-1 mice; 10 mg/kg IV, 3 min postdose) was 4/5 and the “MES, number of mice protected” value (male CF-1 mice; 10 mg/kg IV, 30 min postdose) was 4/5. The “Animals died in this group” value (male CF-1 mice; 10 mg/kg IV, 1 hr group) was 1/5 and the “MES, number of mice protected” value (male CF-1 mice; 10 mg/kg IV, 1 hr postdose) was 3/4.
COc1ccc(CCN(C)CC(O)COc2cccc(C)c2)cc1OC (stereo not shown) [Example 25, 1-{[2-(3,4-Dimethoxyphenyl)-ethyl]-methylamino}-3-m-tolyloxy-propan-2-ol] gave an inhibition at 30 µM (P-type calcium channels) of 31%.
For COc1ccc(CCN(C)CC(O)COc2ccc(OCc3ccccc3)cc2)cc1OC (stereo not shown) [Example 26, 1-(4-Benzyloxyphenoxy)-3-{[2-(3,4-dimethoxyphenyl)ethyl]-methylamino}-propan-2-ol], the pIC50 (P-type calcium channels) was 5.48.
In the case of COc1ccc(CCN(C)CC(O)COc2ccc3c(c2)CCC3)cc1OC (stereo not shown) [Example 27], the inhibition at 10 µM (P-type calcium channels) was 43% and the inhibition at 30 µM (P-type calcium channels) was 69%.
COc1ccc(CCN(C)CC(O)COc2cccc3ccccc23)cc1OC (stereo not shown) [Example 28, 1-{[2-(3,4-Dimethoxyphenyl)-ethyl]-methylamino}-3-(naphthalen-1-yloxy)-propan-2-ol] gave a pIC50 (P-type calcium channels) of 5.17.
COc1ccc(CCN(C)CC(O)CSc2cccc3ccccc23)cc1OC (stereo not shown) [Example 29, 1-{[2-(3,4-Dimethoxyphenyl)-ethyl]-methylamino}-3-(naphthalen-1-ylsulfanyl)-propan-2-ol] showed a pIC50 (P-type calcium channels) of 5.44.
In the case of COc1ccc(CCN(Cc2c[nH]c3ccccc23)CC(O)COc2cccc(C)c2)cc1OC (stereo not shown) [Example 30, 1-[[2-(3,4-Dimethoxyphenyl)ethyl]-(1H-indol-3-ylmethyl)-amino]-3-m-tolyloxypropan-2-ol], the pIC50 (P-type calcium channels) was 5.35 and the pKi (sodium channels) was 7.82.
